Data: publication PMC10233829 (ACS Omega, 2023)
Values after ≈ are worked out from the molar mass of the structure shown.

Legend:
[1] = test system: clinical bacterial strains; assay: MIC, clinical isolates as groups of strains; format: cell-based; details: for MIC: clinical strains, read-out: MIC against selected E. coli and E. cloacae strains
PC3 cells = assay: MTT assay, cytotoxic activity; format: cell-based, human; details: Homo sapiens, PC-3, 72 h, MTT, 72 h
Procedure: Metastatic prostate cancer (PC3) and human immortal keratinocyte (HaCaT) cell lines were purchased from the American Type Culture Collection (ATCC, Rockville, MD, USA) and cultured in MEM (minimal essential medium, Thermo Sci, USA), RPMI 1640 (Roswell Park Memorial Institute, Biowest SAS, France), and DMEM (Dulbecco’s Modified Eagle’s Medium, Biowest SAS, France). Cells were seeded in 6 mL medium in a tissue culture flask (50 mL) in a 37 °C/5% CO2 humidified incubator. […] MTT analysis was performed according to a previous study.[59] Untreated cells were used as controls. Cell absorbance results were inserted into the formula for the relative MTT level (%). It allows to calculate the viability of cells under the influence of the tested compounds. Cell viability was expressed as the percentage of MTT reduction in cells treated with tested compounds compared to the control sample. The relative MTT level was calculated using the formula [100%] = A/B × 100% where A—the test sample absorbance and B—the control sample absorbance.

S. aureus ATCC 25923 = assay: MIC, twofold microdilution, standard strain; format: cell-based; details: Staphylococcus aureus, ATCC25923, 18 h
S. epidermidis 5253 = assay: MIC, twofold microdilution, clinical strain; format: cell-based, Staphylococcus epidermidis; details: for MIC: Staphylococcus epidermidis, 5253, 18 h
M. tuberculosis H37Rv = assay: Tuberculostatic activity, Microplate Alamar Blue Assay (MIC); format: cell-based, Mycobacterium tuberculosis; details: Mycobacterium tuberculosis, H37RV; MABA; read-out: MIC M. tuberculosis H37Rv
P. aeruginosa 37 = assay: MIC, twofold microdilution, clinical strain; format: cell-based; details: Pseudomonas aeruginosa, 18 h
[2] = test system: S. epidermidis ATCC 12228; assay: MIC, twofold microdilution, standard strain; format: cell-based; details: Staphylococcus epidermidis, ATCC12228, 18 h
S. epidermidis 4341 = assay: MIC, twofold microdilution, clinical strain; format: cell-based; details: Staphylococcus epidermidis, 18 h
E. coli 600 = assay: MIC, twofold microdilution, clinical strain; format: cell-based, Escherichia coli; details: for MIC: Escherichia coli, 600, 18 h
M. tuberculosis Spec 210 = assay: microbe, parasite or virus in culture; format: cell-based, Mycobacterium tuberculosis; details: M. tuberculosis Spec. 210
S. aureus 180 = assay: MIC, twofold microdilution, clinical strain; format: cell-based; details: Staphylococcus aureus, 18 h
[3] = test system: P. aeruginosa ATCC 15442 and E. coli ATCC 25922; assay: MIC, standard Gram-negative rods as a panel; format: cell-based; details: P. aeruginosa ATCC 15442, E. coli ATCC 25922; read-out: MIC against standard Gram-negative rods (range over strains)
E. coli 951 = assay: MIC, twofold microdilution, clinical strain; format: cell-based; details: Escherichia coli, 18 h
E. coli ATCC 25922 = assay: MIC, twofold microdilution, standard strain; format: cell-based, Escherichia coli; details: Escherichia coli, ATCC25922; standard strain, 18 h
S. aureus ATCC 6538 = assay: MIC, twofold microdilution, standard strain; format: cell-based, Staphylococcus aureus; details: Staphylococcus aureus, ATCC6538; standard strain, 18 h
K. pneumoniae 510 = assay: MIC, twofold microdilution, clinical strain; format: cell-based, Klebsiella pneumoniae; details: Klebsiella pneumoniae, 510; clinical strain, 18 h
S. pasteuri KR 4358 = assay: MIC, twofold microdilution, clinical strain; format: cell-based; details: Staphylococcus pasteuri, KR4358, 18 h
S. aureus 5595 = assay: MIC, twofold microdilution, clinical strain; format: cell-based; details: Staphylococcus aureus, 18 h
[4] = MTT assay, cytotoxic activity; format: cell-based; details: human, HaCaT cells (immortal keratinocytes); MTT, 72 h, normal cell line; read-out: IC50 HaCaT
Procedure: Cells were seeded in 6 mL medium in a tissue culture flask (50 mL) in a 37 °C/5% CO2 humidified incubator. […] MTT analysis was performed according to a previous study.[59] Untreated cells were used as controls. Cell absorbance results were inserted into the formula for the relative MTT level (%). It allows to calculate the viability of cells under the influence of the tested compounds. Cell viability was expressed as the percentage of MTT reduction in cells treated with tested compounds compared to the control sample. The relative MTT level was calculated using the formula [100%] = A/B × 100% where A—the test sample absorbance and B—the control sample absorbance.

S. aureus NCTC 4163 = assay: MIC, twofold microdilution, standard strain; format: cell-based; details: Staphylococcus aureus, NCTC4163, 18 h
S. aureus T5591 = assay: MIC, twofold microdilution, clinical strain; format: cell-based, Staphylococcus aureus; details: for MIC: Staphylococcus aureus, T5591, 18 h
[5] = test system: M. tuberculosis Spec. 192; assay: Tuberculostatic activity, Microplate Alamar Blue Assay (MIC); format: cell-based; details: Mycobacterium tuberculosis, MABA, read-out: MIC M. tuberculosis Spec. 192 (sensitive to tuberculostatics)
K. pneumoniae 28 = assay: MIC, twofold microdilution, clinical strain; format: cell-based; details: Klebsiella pneumoniae, 18 h
S. aureus T5595 = assay: MIC, twofold microdilution, clinical strain; format: cell-based, Staphylococcus aureus; details: for MIC: Staphylococcus aureus, T5595, 18 h
P. aeruginosa 659 = assay: MIC, twofold microdilution, clinical strain; format: cell-based; details: Pseudomonas aeruginosa, 18 h
[6] = test system: S. epidermidis ATCC 35984; assay: MIC, twofold microdilution, standard strain; format: cell-based; details: Staphylococcus epidermidis, ATCC35984, 18 h
E. cloacae 8 = assay: MIC, twofold microdilution, clinical strain; format: cell-based, Escherichia cloacae; details: Enterobacter cloacae, 8; clinical strain, 18 h
P. aeruginosa ATCC 15442 = assay: MIC, twofold microdilution, standard strain; format: cell-based, Pseudomonas aeruginosa; details: Pseudomonas aeruginosa, ATCC15442; standard strain, 18 h
E. coli 520 = assay: MIC, twofold microdilution, clinical strain; format: cell-based; details: Escherichia coli, 18 h
S. epidermidis KR4243/1 = assay: MIC, twofold microdilution, clinical strain; format: cell-based; details: Staphylococcus epidermidis, 18 h
S. aureus ATCC 29213 = assay: MIC, twofold microdilution, standard strain; format: cell-based; details: Staphylococcus aureus, ATCC29213, 18 h

SMILES | MIC [1] [µg/mL] | IC50 (PC3 cells) [µM] | MIC (S. aureus ATCC 25923) [µg/mL] | MIC (S. epidermidis 5253) [µg/mL] | MIC (M. tuberculosis H37Rv) [µg/mL] | MIC (P. aeruginosa 37) [µg/mL] | MIC [2] [µg/mL] | MIC (S. epidermidis 4341) [µg/mL] | fold more effective than the reference tuberculostatics (M. tuberculosis Spec 210) | MIC (S. aureus 180) [µg/mL] | MIC (E. coli 951) [µg/mL] | MIC (E. coli ATCC 25922) [µg/mL] | MIC (S. aureus ATCC 6538) [µg/mL] | MIC (K. pneumoniae 510) [µg/mL] | MIC (S. pasteuri KR 4358) [µg/mL] | MIC (S. aureus 5595) [µg/mL] | IC50 at 72 h [4] [µM] | MIC (S. aureus NCTC 4163) [µg/mL] | MIC (S. aureus T5591) [µg/mL] | MIC [5] [µg/mL] | further results
O=C(O)c1cn(C2CC2)c2cc(N3CCN(C(=O)CBr)CC3)c(F)cc2c1=O [Compound 8, 7-[4-(2-Bromoacetyl)-piperazin-1-yl]-1-cyclopropyl-6-fluoro-4-oxo-1,4-dihydro-quinoline-3-carboxylic Acid] | 0.1 to 0.8 (≈ 0.221 to 1.77 µM) | 39.6 ± 4.3 | 0.2 (≈ 0.442 µM) | 12.8 to 25.6 (≈ 28.3 to 56.6 µM) | 32 (≈ 70.8 µM) | 12.8 (≈ 28.3 µM) | 0.2 (≈ 0.442 µM) | 12.8 (≈ 28.3 µM) | 2–8 fold | 0.8 (≈ 1.77 µM) | 6.4 (≈ 14.2 µM) | 0.2 (≈ 0.442 µM) | 0.2 (≈ 0.442 µM) | 25.6 (≈ 56.6 µM) | 0.2 (≈ 0.442 µM) | 0.4 (≈ 0.884 µM) | 44.9 ± 9 | 0.2 (≈ 0.442 µM) | 1.6 (≈ 3.54 µM) | 32 (≈ 70.8 µM) | MIC S. epidermidis 5253 (S. epidermidis 5253; 18 h): 25.6 µg/mL (≈ 56.6 µM); MIC (E. coli 600): 0.2 µg/mL (≈ 0.442 µM); MIC [3]: ≤ 1 µg/mL; MIC (K. pneumoniae 28): > 25.6 µg/mL; MIC (S. aureus T5595): 0.8 µg/mL (≈ 1.77 µM); MIC (P. aeruginosa 659): 6.4 µg/mL (≈ 14.2 µM); MIC [6]: 0.2 µg/mL (≈ 0.442 µM); MIC (E. cloacae 8): 0.8 µg/mL (≈ 1.77 µM); MIC (P. aeruginosa ATCC 15442): 3.2 µg/mL (≈ 7.08 µM); MIC (E. coli 520): 0.2 µg/mL (≈ 0.442 µM); MIC (S. epidermidis KR4243/1): 0.4 µg/mL (≈ 0.884 µM); MIC (S. aureus ATCC 29213): 0.4 µg/mL (≈ 0.884 µM)
O=C(O)c1cn(C2CC2)c2cc(N3CCN(C(=O)CCBr)CC3)c(F)cc2c1=O [Compound 9, 7-[4-(3-Bromopropionyl)-piperazin-1-yl]-1-cyclopropyl-6-fluoro-4-oxo-1,4-dihydro-quinoline-3-carboxylic Acid] | 0.1 to 0.8 (≈ 0.214 to 1.72 µM) | 69.1 ± 5.8 | 0.2 (≈ 0.429 µM) | 128 (≈ 274 µM) | 2 (≈ 4.29 µM) | 128 (≈ 274 µM) | 0.2 (≈ 0.429 µM) | 16 (≈ 34.3 µM) | 8–32 fold | 0.5 (≈ 1.07 µM) | 64 (≈ 137 µM) | 0.4 (≈ 0.858 µM) | 0.2 (≈ 0.429 µM) | > 25.6 | 0.2 (≈ 0.429 µM) | 0.5 (≈ 1.07 µM) | > 100 | 0.1 (≈ 0.214 µM) | 0.1 to 0.2 (≈ 0.214 to 0.429 µM) | 2 (≈ 4.29 µM) | times more powerful than CP ([1]; S. aureus T5595 and T5591): 1.25–2.5 times; MIC E. coli 600 (E. coli 600; 18 h): –0.4 μg/mL; MIC [3]: ≤ 1 µg/mL; MIC S. aureus T5591 (S. aureus T5591; 18 h): 0.1 µg/mL (≈ 0.214 µM); MIC (K. pneumoniae 28): > 25.6 µg/mL; MIC S. aureus T5595 (S. aureus T5595; 18 h): 0.2 µg/mL (≈ 0.429 µM); MIC (S. aureus T5595): 0.1 to 0.2 µg/mL (≈ 0.214 to 0.429 µM); MIC (P. aeruginosa 659): > 25.6 µg/mL; MIC [6]: 0.2 µg/mL (≈ 0.429 µM); MIC (E. cloacae 8): 2 µg/mL (≈ 4.29 µM); MIC (P. aeruginosa ATCC 15442): 12.8 µg/mL (≈ 27.4 µM); MIC (E. coli 520): 0.8 µg/mL (≈ 1.72 µM); MIC (S. epidermidis KR4243/1): 0.1 µg/mL (≈ 0.214 µM); MIC (S. aureus ATCC 29213): 0.2 µg/mL (≈ 0.429 µM)
O=C(O)c1cn(C2CC2)c2cc(N3CCN(CCCC(=O)N4CCN(c5cc6c(cc5F)c(=O)c(C(=O)O)cn6C5CC5)CC4)CC3)c(F)cc2c1=O [Compound 18, CP–Butyryl–CP Dimer] | 0.1 to 0.8 (≈ 0.137 to 1.09 µM) | > 100 | 4 (≈ 5.47 µM) | > 25.6 | 8 (≈ 10.9 µM) | 12.8 (≈ 17.5 µM) | 1 (≈ 1.37 µM) | > 25.6 | 2–8 fold | 6.4 (≈ 8.76 µM) | 6.4 (≈ 8.76 µM) | 16 (≈ 21.9 µM) | 2 (≈ 2.74 µM) | > 25.6 | 3.2 (≈ 4.38 µM) | 6.4 (≈ 8.76 µM) | 92.2 ± 8.7 | 2 (≈ 2.74 µM) | 6.4 (≈ 8.76 µM) | 16 (≈ 21.9 µM) | MIC (E. coli 600): 0.4 µg/mL (≈ 0.547 µM); MIC (K. pneumoniae 28): > 25.6 µg/mL; MIC (S. aureus T5595): 6.4 µg/mL (≈ 8.76 µM); MIC (P. aeruginosa 659): > 25.6 µg/mL; MIC [6]: 16 µg/mL (≈ 21.9 µM); MIC (E. cloacae 8): 0.8 µg/mL (≈ 1.09 µM); MIC (P. aeruginosa ATCC 15442): 4 µg/mL (≈ 5.47 µM); MIC (E. coli 520): 1.6 µg/mL (≈ 2.19 µM); MIC (S. epidermidis KR4243/1): 3.2 µg/mL (≈ 4.38 µM); MIC (S. aureus ATCC 29213): 4 µg/mL (≈ 5.47 µM)
